Experimental data reported in patent publication US20230381774A1, “MICROFLUDIC LAB-ON-CHIP DEVICE, MATRIX, SMALL MOLECULES AND THREE-DIMENSIONAL SPHEROIDS FOR CELL REPROGRAMMING” (The Regents of the University of California, priority 2022, published 2023).
Entries after “also recorded” stand apart in the source; their conditions may differ.

Experiments:
Format in all cases: cell-based, mouse
[1] = system: neuronal genes; test: qRT-PCR of neuronal gene expression; settings: for neuronal gene expression at day 5: blebbistatin or 5 μM PF573228, vs non-treated transduced cells
Method: RNA was isolated from samples using Trizol® (Ambion) according to the manufacturer's instructions. For cDNA synthesis, 500 ng of RNA was reverse transcribed using Maxima First Strand cDNA Synthesis Kit (ThermoFisher Scientific). Template DNA was amplified using Maxima SYBR Green/Fluorescein qPCR Master Mix (ThermoFisher Scientific) on a CFX qPCR machine (Bio-Rad). qRT-PCR data were analyzed using CFX Manager 3.1 (Bio-Rad) and gene expression levels were normalized to 18S.

[2] = system: 5-methylcytosine (5-mC); test: Global DNA methylation (5-mC) assay; settings: non-transduced fibroblasts, 24 hours, vs control
Method: DNA was isolated from non-transduced fibroblasts treated with vehicle control (DMSO), 10 μM blebbistatin and 5 μM PF573228, respectively, for 24 hours using the PureLink Genomic DNA mini kit (Invitrogen) according to the manufacturer's instructions. To detect global DNA methylation (5-mC) levels in the samples, we utilized the MethylFlash Global DNA Methylation (5-mC) ELISA Easy kit (Epigentek) according to the manufacturer's protocol. 100 ng of DNA sample was utilized per reaction and after adding the color developer solution, the absorbance was measured using a plate reader (Infinite […], 30050303) at 450 nm.

[3] = system: H3K4-specific histone methyltransferase (HMT); test: H3K4 HMT activity assay on nuclear extracts of treated fibroblasts; settings: 10 μM blebbistatin or 5 μM PF573228, 2 hours, vs DMSO
Method: Nuclear protein extractions were isolated from 5×10^5 fibroblasts treated with vehicle control (DMSO), 10 μM blebbistatin or 5 μM PF573228 for 2 hours using a nuclear extraction kit (EpiGentek, OP-0002), in accordance with the manufacturer's instructions. HAT, HDAC, H3K4 HMT, H3K4 HDM and DNMT activity were measured using the HAT activity/inhibition assay (EpiGentek, P-4003-048), HDAC activity/inhibition assay (EpiGentek, P-4034-096), Histone methyltransferase (H3K4 specific) activity/inhibition assay (EpiGentek, P-3002-1), Histone Demethylase (H3K4 specific) activity/inhibition assay (EpiGentek, P-3074-48), and DNMT activity/inhibition assay (EpiGentek, P-3009-048), respectively. Per the manufacturer's instructions, 20 μg of nuclear extract was added into the assay wells and incubated at 37° C. for 90 minutes. After adding the color developer solution, the absorbance was measured using a plate reader (Infinite […], 30050303) at 450 nm for all the assays with the exception of the Histone Demethylase (H3K4 specific) activity/inhibition assay where we measured the fluorescence using a fluorescence microplate reader at 530 EX/590 EM nm.

[4] = system: BAM-transduced fibroblasts; test: iN reprogramming of BAM-transduced fibroblasts with cytoskeletal and adhesion inhibitors (TUBB3+ iN cells, 2 weeks); settings: for dose response of reprogramming efficiency: varying concentrations
Method: To examine whether these changes in cell stiffness, actin structure and expression of contractility-mediating genes were involved in iN reprogramming, we evaluated the effects of disrupting the cytoskeleton using small molecule inhibitors. For these experiments, BAM-transduced fibroblasts were reprogrammed as in FIG. 1A and chemical compounds known to perturb the cytoskeleton were added to the culture medium on day 1 to evaluate their effects on the reprogramming process. […] The reprogramming efficiency was determined as the percentage of TUBB3*-iN cells normalized to the number of cells plated at 24 hours post-seeding (i.e., day 0). First, we tested whether disruption of cytoskeletal contractility could influence the direct reprogramming of fibroblasts into neurons using blebbistatin, a non-muscle myosin II inhibitor^22-24. We observed that iN cells could be derived in the absence and presence of blebbistatin (FIG. 3A). […] In particular, treatment with 10 μM blebbistatin generated the highest number of iN cells and increased the reprogramming efficiency by approximately 4.5-fold compared to the control, therefore, this concentration was used in all subsequent experiments. […] As Ascl1 has been identified as a pioneer factor for iN reprogramming and transduction of Ascl1 alone is sufficient to generate iN cells^25,26, we further investigated whether blebbistatin could influence iN conversion by Ascl1 induction.
After transduction, mouse fibroblasts were seeded onto multi-well tissue culture-treated polystyrene dishes (Falcon) coated with laminin (0.1 mg/ml, Corning) at 4,000 cells per cm^2. Twenty-four hours after seeding, the medium was replaced to MEF medium containing doxycycline (2 μg/ml, Sigma). The following day (i.e., day 1) the medium was changed to N3 medium (DMEM/F12 [GIBCO]+N2 supplement [Invitrogen]+B27 supplement [Invitrogen]+1% penicillin/streptomycin [Gibco]+ doxycycline [2 μg/ml, Sigma]) and the cultures were maintained in this medium for the duration of the experiments. For Ascl1-only reprogramming, N3 medium was further supplemented with BDNF (5 ng/ml, R&D systems) and GDNF (5 ng/ml, R&D systems) after day 7. For cytoskeletal and cell adhesion disruptions, Blebbistatin (Millipore), Y-27632 (20 μM; Cayman Chemical), Nocodazole (0.3 μM; Sigma), Cytochalasin D (1 μM; Sigma), Jasplakinolide (0.05 μM; Cayman Chemical) and PF573228 (Sigma) were administered in N3 medium on day 1 and for the first 7 days of reprogramming (unless stated otherwise) and used at the indicated concentrations. Culture medium was replenished every 2 days during reprogramming to maintain the activity of the small molecules. After culturing for the desired length (14 days for BAM and 21 days for Ascl1 only), the induced neuronal (iN) cells were analyzed and the reprogramming efficiency was determined.
The reprogramming efficiency was determined by as the percentage of TUBB3^+ iN cells in each condition normalized to the number of cells plated at 24 hours post-seeding. Epifluorescence images were collected using a Zeiss Axio Observer.D1, Zeiss Axio Observer.Z1, and ImageXpress Micro XLS System (Molecular Devices), whereas confocal images were acquired using a Zeiss LSM710 microscope and Leica SP8 Confocal Laser Scanning microscope.

Row | Compound | neuronal gene expression at day 5 ([1]; BAM-transduced fibroblasts) | DNA methylation (5-mC) [2] | H3K4-specific HMT activity [3] | dose response of reprogramming efficiency [4] | endogenous Brn2 and Myt1l expression ([1]; Ascl1-transduced fibroblasts) | expression of several neuronal genes including NeuroD1 ([1]; Ascl1-transduced fibroblasts) | Ascl1 expression at day 3 ([1]; BAM-transduced fibroblasts) | Brn2 and Myt1l expression at day 3 ([1]; BAM-transduced fibroblasts) | concentration generating the highest number of iN cells [4] | time course of TUBB3+ iN cell generation ([4]; as early as day 5) | phase of reprogramming in which treatment is effective ([4]; early days 1-5, mid days 5-9, late days 9-13, 10 μM) | reprogramming efficiency in Tau-EGFP fibroblasts ([4]; mouse fibroblasts isolated from Tau-EGFP mice) | length of treatment sufficient to enhance reprogramming efficiency ([4]; treatment over timescales of 1 to 14 days)
1 | CS(=O)(=O)c1cccc(CNc2nc(Nc3ccc4c(c3)CCC(=O)N4)ncc2C(F)(F)F)c1 [PF573228] | greater | lower levels of DNA methylation | differences | significantly increased the reprogramming efficiency in a biphasic manner; also recorded: promoted iN reprogramming in a biphasic manner | – | – | – | – | – | – | – | – | –
2 | Cc1ccc2c(c1)C(=O)C1(O)CCN(c3ccccc3)C1=N2 (centres unmarked) [blebbistatin] | significantly increased | a decrease in the abundance of DNA methylation marker, 5-methylcytosine (5-mC) | increased | biphasic dose response | upregulated the expression of endogenous Brn2 and Myt1l | higher | upregulated | did not show such a drastic increase in the expression level | 10 µM | led to more efficient generation of TUBB3^+ iN cells than the control | most crucial during the early phase of reprogramming | enhanced reprogramming efficiency by blebbistatin was also confirmed | 3 days
